Measurements reported in article PMC6471218, “Anti-Diabetic Activity of 2,3,6-Tribromo-4,5-Dihydroxybenzyl Derivatives from Symphyocladia latiuscula through PTP1B Downregulation and α-Glucosidase Inhibition” (Marine Drugs, 2019).
Where two headings read alike, the source gives them in different places.

Key:
yeast α-glucosidase [1] = biological target: T1, yeast α-glucosidase (Saccharomyces cerevisiae, UniProt P53341); experiment: Kinetic study against α-glucosidase (Lineweaver–Burk and Dixon plots); format: biochemical; details: for α-Glucosidase Inhibition Type: determined from Lineweaver–Burk plots
T1 construct: purchased Sigma-Aldrich Co. (St. Louis, MO, USA)
Protocol: (§1) In competitive inhibition mode (Figure 2C), double reciprocal plots yielded a group of lines with the same y-intercept (constant Vmax) but different x-intercepts (varying Km values). […] The double reciprocal plots of α-glucosidase enzyme inhibition by 3 yielded a group of lines intersecting at a single point in the second quadrant.
(§2) The modes of enzyme inhibition were evaluated by monitoring the effects of different concentrations of the substrates (1, 2, or 4 mM pNPP for PTP1B and 1.25, 2.5, or 5 mM pNPG for α-glucosidase) on Dixon plots (single reciprocal plots). […] The enzymatic procedure consisted of the same aforementioned assay method. The inhibition constants (Ki) were determined by interpreting Dixon plots, where the value of the x-intercept indicated the value of −Ki.

[2] = biological target: T2, Human recombinant protein tyrosine phosphatase (PTP1B) (Homo sapiens, UniProt P18031); experiment: Kinetic study against PTP1B (Lineweaver–Burk and Dixon plots); format: biochemical; details: for PTP1B Inhibition Type: determined from Lineweaver–Burk plots
T2 sequence (P18031 1-435): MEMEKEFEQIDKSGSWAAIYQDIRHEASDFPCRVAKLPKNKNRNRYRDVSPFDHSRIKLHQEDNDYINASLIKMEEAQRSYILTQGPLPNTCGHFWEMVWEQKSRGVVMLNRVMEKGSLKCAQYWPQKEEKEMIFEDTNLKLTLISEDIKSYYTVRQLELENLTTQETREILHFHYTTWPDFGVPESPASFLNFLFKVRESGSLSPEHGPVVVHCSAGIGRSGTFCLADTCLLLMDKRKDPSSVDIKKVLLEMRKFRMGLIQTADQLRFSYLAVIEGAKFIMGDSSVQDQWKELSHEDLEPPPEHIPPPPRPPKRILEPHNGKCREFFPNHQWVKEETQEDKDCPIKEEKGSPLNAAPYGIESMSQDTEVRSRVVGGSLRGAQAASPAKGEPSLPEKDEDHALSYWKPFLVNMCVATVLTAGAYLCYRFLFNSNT
Protocol: as §1, §2

[3] = biological target: T2, Human recombinant protein tyrosine phosphatase (PTP1B); experiment: PTP1B inhibitory assay with pNPP substrate; format: biochemical
Text: (§3) The initial step in evaluating anti-diabetic secondary metabolites from Symphyocladia latiuscula was the evaluation of PTP1B and α-glucosidase inhibition potentials of methanol extract and fractions obtained by MeOH extract partition with different solvents using pNPP and pNPG as substrates, respectively. Enzyme inhibition levels are expressed as mean IC50 values with standard deviation.
(§4) Human recombinant protein tyrosine phosphatase (PTP1B) was purchased from Biomol International LP (Plymouth Meeting, PA, USA). Fetal bovine serum (FBS), minimum essential medium (MEM), sodium pyruvate, penicillin-streptomycin, and nonessential amino acids were purchased from Gibco-BRL Life Technologies (Grand Island, NY, USA). The fluorescent D-glucose analogue and 2-NBDG was purchased from Life Technologies (Carlsbad, CA, USA). Human insulin was purchased from Eli Lilly (Fegersheim, France). All other chemicals and solvents used were of reagent grade and acquired from commercial sources.
The potential for MeOH extract, solvent-soluble fractions, and isolated compounds to inhibit PTP1B enzyme activity was evaluated using the pNPP substrate. Experimental conditions and laboratory procedures were similar to those published in our previous report.

yeast α-glucosidase [4] = biological target: T1, yeast α-glucosidase; experiment: biochemical; format: biochemical; details: for Enhancement of α-glucosidase inhibitory activity compared to 2: ratio of IC50 values
Text: as §3, §4
The α-glucosidase inhibition assay procedure, previously reported by Li et al., was followed to measure the release of […] at 405 nm using a microplate spectrophotometer (Molecular Devices).

HepG2 cells = experiment: MTT cytotoxicity assay in HepG2 cells; format: cell-based, human; details: 25, 50 and 100 μM, 24 h
Protocol: Cytotoxicity of bromophenols on HepG2 cells was evaluated using a 3-(4,5-dimethylthiazol-2-yl)-2,5-diphenyl tetrazolium bromide (MTT) assay. […] So, considering enzyme inhibition activity and toxicity in HepG2 cells, we performed cell-based experiments at 5, 10, and 20 µM concentrations.
Figure 7 Effect of bromophenols 1–3 on cell viability in HepG2 cells. Cell viability was determined using the 3-(4,5-dimethylthiazol-2-yl)-2,5-diphenyl tetrazolium bromide (MTT) method. Cells were pretreated with the indicated concentrations (25, 50, and 100 μM) of test compounds for 24 h. Data shown represent mean ± standard deviation of triplicate experiments. ^a p < 0.05 indicates significant differences from the control group.
(§5) HepG2 (human hepatocarcinoma) cells obtained from the American Type Culture Collection (HB-8065; Manassas, VA, USA) were maintained in 10% FBS MEM at 37 °C in a humidified atmosphere with 5% CO2. Cytotoxicity was evaluated using the MTT assay. Following previously described methods, an insulin-resistant HepG2 cell model was established. All other experimental conditions and procedures were similar to those reported in our previous paper.

[5] = system: insulin-resistant HepG2 cells; experiment: 2-NBDG glucose uptake assay in insulin-resistant HepG2 cells; format: cell-based, human; details: 24 h; for Insulin-stimulated glucose uptake compared with rosiglitazone 10 µM (112%): 20 µM
Protocol: Figure 8 Effect of bromophenols 1–3 on insulin-stimulated glucose uptake in insulin-resistant HepG2 cells. The glucose uptake assay was performed using the fluorescent D-glucose analogue 2-NBDG and 10^−6 mol/L insulin was to induce insulin resistance. Insulin-resistant HepG2 cells were treated with the indicated concentrations of test compounds or rosiglitazone for 24 h, and insulin-stimulated 2-NBDG uptake was measured. Values represent the mean ± standard deviation of triplicate experiments. ^a p < 0.01 indicates significant differences from the control group; ^b p < 0.05, ^c p < 0.01, and ^d p < 0.001 indicate significant differences from the insulin-resistant group.
as §5
The relative percent glucose uptake upon sample treatment in IR-HepG2 cells was evaluated by a flourimetric method using the fluorescent D-glucose analog 2-NBDG and measured on a fluorescence microplate reader (FL×800, Bio-Tek Instruments, Inc., Winooski, VT, USA) at 485 nm excitation and 528 nm emission wavelengths. Detailed experimental conditions and procedures are reported in our previous publication.

α-glucosidase = biological target: α-glucosidase; set-up: method as in ref 24, 34 (Kurihara et al.); details: different enzyme and pNPG concentrations; 34 (Kurihara et al.); read-out: 50% α-glucosidase enzyme inhibition concentration (literature); cited from earlier work
PTP1B = system: PTP1B; set-up: method as in ref 35 (Liu et al.); details: ref 35 (Liu et al.); read-out: PTP1B IC50 (literature); cited from earlier work
[6] = system: PTP1B expression in insulin-resistant HepG2 cells; experiment: PTP1B expression level in insulin-resistant HepG2 cells (western blot); format: cell-based, human; details: 24 h treatment, then 100 nM insulin 30 min
Protocol: Figure 9 Effects of bromophenol 1 (A), 2 (B), and 3 (C) on protein tyrosine phosphatase 1B (PTP1B) expression levels in insulin-resistant HepG2 cells. Western blotting was performed and protein band intensities were quantified by densitometric analysis. Upper panels display representative blots. Equal protein loading was ensured and normalized against β-actin levels. Values represent the mean ± standard deviation of three independent experiments; ^a p < 0.001 indicates significant differences from the control group; ^b p < 0.05, ^c p < 0.01, and ^d p < 0.001 indicate significant differences from the insulin-resistant group.
Insulin-resistant HepG2 cells were exposed to a range of concentrations of 1–3 or rosiglitazone (10 μM) in 24-well plates for 24 h followed by stimulation with 100 nM insulin diluted in SFMEM for 30 min. Cells were then washed twice with ice cold PBS, collected, and lysed with sample buffer. Protein was quantified by the modified Bradford protein assay kit using bovine serum albumin (BSA) as a standard, electrophoresed on sodium dodecyl sulfate-polyacrylamide gels (Bio-Rad, Hercules, CA, USA), and then transferred to polyvinylidene difluoride (PVDF) membranes (Immobilon-P; Millipore, Burlington, MA, USA) using the Pierce G2 Fast Blotter (Thermo Fisher Scientific Inc, USA) at 100 V for 60 min in a standard semi-dry system. […]

T1 sequence (P53341 whole entry): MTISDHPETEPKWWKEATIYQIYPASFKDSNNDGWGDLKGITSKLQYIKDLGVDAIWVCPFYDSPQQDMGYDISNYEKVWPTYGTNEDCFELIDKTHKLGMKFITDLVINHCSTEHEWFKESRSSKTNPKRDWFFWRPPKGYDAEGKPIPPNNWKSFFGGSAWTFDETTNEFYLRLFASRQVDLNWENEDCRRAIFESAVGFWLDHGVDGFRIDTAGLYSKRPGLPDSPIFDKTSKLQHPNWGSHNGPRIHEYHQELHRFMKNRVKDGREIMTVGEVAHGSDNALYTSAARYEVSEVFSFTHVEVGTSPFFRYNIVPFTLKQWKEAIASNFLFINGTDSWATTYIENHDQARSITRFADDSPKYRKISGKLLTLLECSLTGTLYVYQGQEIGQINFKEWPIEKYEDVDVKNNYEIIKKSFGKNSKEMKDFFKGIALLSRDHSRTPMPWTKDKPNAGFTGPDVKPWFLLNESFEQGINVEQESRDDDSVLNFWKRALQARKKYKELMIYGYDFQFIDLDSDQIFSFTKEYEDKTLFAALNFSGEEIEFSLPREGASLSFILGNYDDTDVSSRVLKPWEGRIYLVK

Row | Compound | Ki (yeast α-glucosidase [1]) [nM] | α-Glucosidase Inhibition Type (yeast α-glucosidase [1]) | Ki [2] [nM] | PTP1B Inhibition Type [2] | IC50 [3] [nM] | IC50 (yeast α-glucosidase [4]) [nM] | Enhancement of α-glucosidase inhibitory activity compared to 2 (yeast α-glucosidase [4]) [fold] | Cytotoxicity (cell viability, MTT) in HepG2 cells (HepG2 cells) | Insulin-stimulated glucose uptake compared with rosiglitazone 10 µM (112%) [5] | IC50 (α-glucosidase) [nM] | IC50 (PTP1B) [nM] | Ki (yeast α-glucosidase [1]; determined from Dixon plots, read-out: α-Glucosidase Ki) [nM] | Ki ([2]; determined from Dixon plots, read-out: PTP1B Ki) [nM] | IC50 ([3]; mean ± SD, n = 3, read-out: PTP1B IC50) [nM] | IC50 (yeast α-glucosidase [4]; mean ± SD, n = 3, read-out: α-Glucosidase IC50) [nM] | Effect on PTP1B expression level [6] | Insulin-stimulated glucose uptake compared with rosiglitazone 10 µM ([5]; 10 µM) | Insulin-stimulated glucose uptake (2-NBDG) ([5]; 10 µM, relative to normal control) [%]
1 | OCc1c(Br)c(O)c(O)c(Br)c1Br [Compound 1, 2,3,6-Tribromo-4,5-dihydroxybenzyl alcohol] | 1920 | Noncompetitive | 1190 | Mixed-type | 7740 ± 140 | 2630 ± 110 | 2.5 | slightly toxic effect at 100 μM | comparable | 11000 |  |  |  |  |  |  |  | 
2 | COCc1c(Br)c(O)c(O)c(Br)c1Br [Compound 2, 2,3,6-Tribromo-4,5-dihydroxybenzyl methyl ether] | 5540 | Noncompetitive | 2400 | Mixed-type | 8500 ± 450 | 7240 ± 20 |  | did not show toxicity until they were used at a concentration of 100 μM | comparable |  | 3900 |  |  |  |  |  |  | 
3 | Oc1c(O)c(Br)c(COCc2c(Br)c(O)c(O)c(Br)c2Br)c(Br)c1Br [Compound 3, Bis-(2,3,6-tribromo-4,5-dihydroxybenzylmethyl ether)] |  | Mixed-type |  | Competitive |  |  | 3.8 |  |  | 30 |  | 210 | 2250 | 5290 ± 80 | 1920 ± 20 | excellent ability to reduce PTP1B expression level | greater effect than rosiglitazone | 
4 | CN(CCOc1ccc(CC2SC(=O)NC2=O)cc1)c1ccccn1 (stereo not drawn) [Rosiglitazone, rosiglitazone, reference compound] |  |  |  |  |  |  |  |  |  |  |  |  |  |  |  |  |  | 112
